Paper PMC8230565, “Bisavenathramide Analogues as Nrf2 Inductors and Neuroprotectors in In Vitro Models of Oxidative Stress and Hyperphosphorylation” (Antioxidants, 2021)

Tests used:
[1] = target: AChE (Electrophorus electricus) (Electrophorus electricus, UniProt O42275); test: Acetylcholinesterase inhibition (Ellman's method); format: biochemical; details: for inhibition at 10 µM: 10 μM compound, read-out: % Inhibition of EeAChE at 10 μM; for IC50: n in brackets, read-out: IC50 (EeAChE)
Procedure: Ellman’s method was employed to determine the inhibitory capacity of the compounds against AChE (Electrophorus electricus). The compounds were studied at 10 μM concentration, at room temperature, using PBS (0.1 M, pH 8) as solvent. Transparent 48-well microplates (COSTAR 3548) were used and, in each one, a blank was included. The compounds were incubated with the enzyme (0.09 U/mL) and with DTNB (0.35 mM) for 10 min. Afterwards, the enzyme substrate acetylthiocholine (0.35 mM) was added to a final volume of 1 mL. The microplate was incubated at room temperature for 15 min. Then, the absorbance was measured at 420 nm using the microplate reader FluoStar Optima (BMG Labtech, Ortenberg, Baden-Württemberg, Germany). The enzymatic activity was calculated by subtracting the blank absorbance from the sample absorbance and dividing the result by the absorbance of the maximum activity subtracted from blank absorbance, and the result was multiplied by one hundred to give a percentage. The inhibitory activity was calculated by subtracting the enzymatic activity from one hundred. Selected compounds were assayed at 0.3, 1, 3, 10, and 30 μM concentrations to obtain inhibition curves. The results were plotted versus concentration to obtain IC50 values through sigmoidal non-lineal adjustment. All the experiments were performed at least in triplicate.
Bisavenanthramide B-6 and heliotropamide A have been identified as acetylcholinesterase inhibitors. This precedent, coupled with our interest in the potential characterization of our compounds as multitarget-directed ligands, led us to investigate them as inhibitors of this enzyme, an important anti-Alzheimer target.

[2] = system: neuroblastoma SHSY5Y cells; test: Cytotoxicity in SHSY5Y cells (MTT reduction); format: cell-based; details: for LD50: MTT reduction
Procedure: SH-SY5Y cells (ECACC 94030304, Porton Down, Salisbury, UK), from passages between 4 and 16 after defreezing, were maintained in a MEM/F12 containing […] nonessential amino acids and supplemented with 10% fetal bovine serum (FBS), glutamine 1 mM, 50 units/mL of penicillin, and 50 μg/mL of streptomycin (GIBCO, Madrid, Spain). Cells were harvested in a […] flask and incubated at 37 °C with wet atmosphere and 5% CO2, carrying out passages 1:4 twice a week. For neuroprotection experiments, cells were seeded in 96-well plates at a density of 60,000 cells/well. For the toxicity experiments, cells were treated with the compounds under assay before reaching confluence, in MEM/F12 with 1% FBS.
Due to their presumed electrophilicity, the neurotoxicity of our compounds was investigated by investigating their influence on cell viability in the neuroblastoma SHSY5Y cell line prior to other studies in cell cultures. […] It is relevant to note that, despite their reputation for toxicity, interest in covalent drugs has undergone a renaissance, and about 30% of the recently marketed drugs belong to this class.

[3] = system: Nrf2; test: Nrf2 induction, luciferase assay in AREc32 cells; format: cell-based; details: Arec32, 24 h, read-out: CD (concentration that doubles luciferase activity)
Procedure: AREc32 cells (kindly shared by Dr. Professor Ronald C. Wolf, University of Dundee, Dundee, UK) were grown in Dulbecco’s modified Eagle medium (DMEM) with glutamax, supplemented with 10% fetal bovine serum (FBS), 1% of antibiotics penicillin–streptomycin, and geneticin (0.8 mg/mL, G418) (GIBCO, Madrid, Spain). Cells were harvested in a […] flask with 11 mL of the specified medium, incubated at 37 °C and 5% CO2, and they were transferred to a new flask every 4–6 days, when the confluence was around 80%. Cells were seeded in 96-well white plates (20,000 cells/well) using 100 μL/well. After 24 h, cells were treated with compounds at desired concentrations (1, 5, 10, 15 μM) for 24 h, including tert-butyl hydroquinone (TBHQ, 10 μM) as a positive control. Another 24 h later, luciferase activity was measured through a bioluminescence assay using a “Luciferase assay system” (Promega E1500, Madison, WI, USA), following the protocol given by the provider, and quantifying luminescence in an Orion II microplate luminometer (Berthold, Germany). Measurements were performed by duplicate, and the values were normalized to basal luminescence considered as 1. Nrf2 induction potency was expressed as CD values, i.e., the concentrations required to double the luciferase activity, and are calculated from dose–response curves generated by plotting fold induction of control conditions vs. compound concentration, and fitted by non-linear regression and data interpolated to value 2.
The ability of our compounds to induce Nrf2 was evaluated in the AREc32 cell line, an MCF7 stable clone that is transfected with eight copies of the luciferase reporter gene immediately after the ARE sequence. Therefore, Nrf2 activation and the subsequent transcription of the genes dependent on the ARE element also leads to expression of luciferase, which can be quantitated using a luminescence assay. AREc32 cells were incubated for 24 h with 0.3, 3, 10, 30, and 60 μM concentrations of compounds 3, and a luminescence measurement allowed CD values to be obtained. This parameter characterizes the Nrf2-inducing ability of each compound and represents the concentration required to double the luciferase activity compared to its basal expression.

[4] = system: SH-SY5Y cells; test: Neuroprotection against rotenone/oligomycin A in SH-SY5Y cells (MTT); format: cell-based; details: Homo sapiens, 24 h, 1 µM compound, rotenone 30 µM + oligomycin A 10 µM, read-out: % Neuroprotection ± SEM at 1 µM (rotenone/oligomycin A)
Procedure: To evaluate the compounds for their neuroprotective effect in an oxidative stress model, we selected the rotenone (30 μM) and oligomycin A (10 μM) (R/O) cocktail, which disturbs the flow of electrons in the mitochondrial respiratory chain. Similarly, SH-SY5Y cells were preincubated with compounds 3 at 1 μM for 24 h. Then, they were co-incubated in the presence of R/O for a further 24 h, evaluating cell viability by the MTT reduction method.
Thus, the R/O combination constitutes a good model of oxidative stress and neurodegeneration with a mitochondrial origin, and has been broadly employed to evaluate potential hit compounds for the treatment of neurodegenerative diseases. Furthermore, treatment of laboratory animals with rotenone is known to induce many features associated to Parkinson’s disease, such as selective nigrostriatal dopaminergic degeneration and the appearance of α-synuclein cytoplasmic inclusions, which are associated with oxidative damage.

Sequence of AChE (Electrophorus electricus) (O42275 24-633): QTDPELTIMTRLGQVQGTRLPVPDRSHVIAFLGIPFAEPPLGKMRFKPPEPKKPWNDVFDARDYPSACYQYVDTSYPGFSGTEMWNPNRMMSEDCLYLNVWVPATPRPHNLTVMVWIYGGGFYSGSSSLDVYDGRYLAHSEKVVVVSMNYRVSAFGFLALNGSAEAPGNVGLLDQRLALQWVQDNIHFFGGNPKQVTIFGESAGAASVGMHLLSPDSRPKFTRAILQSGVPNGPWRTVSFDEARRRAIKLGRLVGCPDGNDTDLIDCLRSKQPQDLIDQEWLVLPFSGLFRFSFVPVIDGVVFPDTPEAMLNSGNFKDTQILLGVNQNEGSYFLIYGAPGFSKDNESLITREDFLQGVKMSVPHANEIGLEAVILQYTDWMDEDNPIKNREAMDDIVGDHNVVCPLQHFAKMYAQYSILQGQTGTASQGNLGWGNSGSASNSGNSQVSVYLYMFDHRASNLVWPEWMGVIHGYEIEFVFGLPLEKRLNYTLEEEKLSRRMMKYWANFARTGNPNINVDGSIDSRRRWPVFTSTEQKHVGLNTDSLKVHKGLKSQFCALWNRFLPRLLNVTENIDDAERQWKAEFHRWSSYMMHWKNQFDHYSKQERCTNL

Question: What does the source list for COC(=O)C1=C(C)N(Cc2ccccc2)C(=O)/C1=C\c1ccc(OC)cc1 [Compound 3b, Methyl (Z)-1-Benzyl-4-(4-methoxybenzylidene)-2-methyl-5-oxo-4,5-dihydro-1H-pyrrole-3-carboxylate]?
Answer: inhibition at 10 µM [1]: 36.7%; IC50 [1]: 29.7 ± 3 µM; LD50 [2]: >100 µM; EC (2-fold luciferase activity) [3]: 18 ± 1.84 µM; % neuroprotection against rotenone/oligomycin A toxicity at 1 µM [4]: 68 ± 31.5%

Question: Which results are given for COC(=O)C1=C(C)N(CCc2ccccc2)C(=O)/C1=C\c1ccc2c(c1)OCO2 [Compound 3d, Methyl (Z)-4-(Benzo[d](1,3)dioxol-5-ylmethylene)-2-methyl-5-oxo-1-phenethyl-4,5-dihydro-1H-pyrrole-3-carboxylate]?
Answer: inhibition at 10 µM [1]: 25.2%; LD50 [2]: >100 µM; EC (2-fold luciferase activity) [3]: 17.9 ± 8.58 µM; % neuroprotection against rotenone/oligomycin A toxicity at 1 µM [4]: 49.8 ± 9.46%

Question: COC(=O)C1=C(C)N(Cc2ccccc2)C(=O)/C1=C\c1ccc(Cl)cc1 [Compound 3c, Methyl (Z)-1-Benzyl-4-(4-chlorobenzylidene)-2-methyl-5-oxo-4,5-dihydro-1H-pyrrole-3-carboxylate] was tested. Which inhibition at 10 µM [1] did it give?
Answer: 33.5%

Question: What about the “toxicity assessment” value [2] of the same molecule?
Answer: too toxic

Question: And the EC (2-fold luciferase activity) [3]?
Answer: 15 ± 0.8 µM

Question: And the % neuroprotection against rotenone/oligomycin A toxicity at 1 µM [4]?
Answer: > 90%

Question: How did the inhibition at 10 µM [1] turn out when COC(=O)C1=C(C)N(CCc2ccc(OC)c(OC)c2)C(=O)/C1=C\c1ccc(OCc2ccccc2Cl)c(OC)c1 [Compound 3n, Methyl (Z)-4-[4-((2-Chlorobenzyl)oxy)-3-methoxybenzylidene]-1-(3,4-dimethoxyphenethyl)-2-methyl-5-oxo-4,5-dihydro-1H-pyrrole-3-carboxylate] was run?
Answer: 17.6%

Question: What about the LD50 [2] of the same molecule?
Answer: >100 µM

Question: What about the EC (2-fold luciferase activity) [3] of the same molecule?
Answer: 14.3 ± 3.89 µM

Question: And the % neuroprotection against rotenone/oligomycin A toxicity at 1 µM [4]?
Answer: 69.4 ± 23.9%

Question: With COC(=O)C1=C(C)N(CCc2ccccc2)C(=O)/C1=C\c1ccc(OC)cc1OC [Compound 3e, Methyl (Z)-4-(2,4-Dimethoxybenzylidene)-2-methyl-5-oxo-1-phenethyl-4,5-dihydro-1H-pyrrole-3-carboxylate] as the molecule, how does the inhibition at 10 µM [1] read?
Answer: 24.3%

Question: What about the LD50 [2] of the same molecule?
Answer: >100 µM

Question: And the EC (2-fold luciferase activity) [3]?
Answer: 10.4 ± 0.8 µM

Question: And the % neuroprotection against rotenone/oligomycin A toxicity at 1 µM [4]?
Answer: 50.3 ± 16.3%

Question: Which results are given for COC(=O)C1=C(C)N(CCc2ccccc2)C(=O)/C1=C\c1ccc(OC)c(O)c1 [Compound 3h, Methyl (Z)-4-(3-Hydroxy-4-methoxybenzylidene)-2-methyl-5-oxo-1-phenethyl-4,5-dihydro-1H-pyrrole-3-carboxylate]?
Answer: inhibition at 10 µM [1]: 24.2%; LD50 [2]: >100 µM; EC (2-fold luciferase activity) [3]: 36.1 ± 418 µM; % neuroprotection against rotenone/oligomycin A toxicity at 1 µM [4]: 46.2 ± 18.9%

Question: Which inhibition at 10 µM [1] does the source give for COC(=O)C1=C(C)N(CCc2ccccc2)C(=O)/C1=C\c1ccc(OCc2ccc(Cl)cc2)c(OC)c1 [Compound 3l, Methyl (Z)-4-[4-((4-Chlorobenzyl)oxy)-3-methoxybenzylidene]-2-methyl-5-oxo-1-phenethyl-4,5-dihydro-1H-pyrrole-3-carboxylate] here?
Answer: 26.2%

Question: And the LD50 [2]?
Answer: >100 µM

Question: What about the EC (2-fold luciferase activity) [3] of the same molecule?
Answer: 14 ± 4.45 µM

Question: What about the % neuroprotection against rotenone/oligomycin A toxicity at 1 µM [4] of the same molecule?
Answer: 79.8 ± 8.28%

Question: How did the inhibition at 10 µM [1] turn out when COC(=O)C1=C(C)N(Cc2ccccc2)C(=O)/C1=C\c1ccccc1 [Compound 3a, Methyl (Z)-1-Benzyl-4-benzylidene-2-methyl-5-oxo-4,5-dihydro-1H-pyrrole-3-carboxylate] was run?
Answer: 27.4%

Question: What about the “toxicity assessment” value [2] of the same molecule?
Answer: too toxic

Question: What about the LD50 [2] of the same molecule?
Answer: 63.7 ± 12.8 µM

Question: And the EC (2-fold luciferase activity) [3]?
Answer: 30.2 ± 1.89 µM

Question: And the % neuroprotection against rotenone/oligomycin A toxicity at 1 µM [4]?
Answer: 44.3 ± 13.6%

Question: Which inhibition at 10 µM [1] does the source give for COC(=O)C1=C(C)N(CCc2ccc(OC)c(OC)c2)C(=O)/C1=C\c1ccc(OCc2ccc(Cl)cc2)c(OC)c1 [Compound 3m, Methyl (Z)-4-[4-((4-Chlorobenzyl)oxy)-3-methoxybenzylidene]-1-(3,4-dimethoxyphenethyl)-2-methyl-5-oxo-4,5-dihydro-1H-pyrrole-3-carboxylate] here?
Answer: 31.8%

Question: What about the LD50 [2] of the same molecule?
Answer: >100 µM

Question: And the EC (2-fold luciferase activity) [3]?
Answer: 21.4 ± 5.72 µM

Question: What about the % neuroprotection against rotenone/oligomycin A toxicity at 1 µM [4] of the same molecule?
Answer: 41.2 ± 18.9%

Question: With COC(=O)C1=C(C)N(CCc2ccccc2)C(=O)/C1=C\c1c[nH]c2ccccc12 [Compound 3o, Methyl (Z)-4-((1H-Indol-3-yl)methylene)-2-methyl-5-oxo-1-phenethyl-4,5-dihydro-1H-pyrrole-3-carboxylate] as the molecule, how does the inhibition at 10 µM [1] read?
Answer: 39.8%

Question: And the IC50 [1]?
Answer: 12.5 ± 1.4 µM

Question: What about the LD50 [2] of the same molecule?
Answer: >100 µM

Question: What about the EC (2-fold luciferase activity) [3] of the same molecule?
Answer: 36 ± 10.6 µM

Question: And the % neuroprotection against rotenone/oligomycin A toxicity at 1 µM [4]?
Answer: > 90%

Question: Which inhibition at 10 µM [1] does the source give for COC(=O)C1=C(C)N(CCc2ccccc2)C(=O)/C1=C\c1ccc(OCc2ccccc2F)c(OC)c1 [Compound 3j, Methyl (Z)-4-[4-((2-Fluorobenzyl)oxy)-3-methoxybenzylidene]-2-methyl-5-oxo-1-phenethyl-4,5-dihydro-1H-pyrrole-3-carboxylate] here?
Answer: 16%

Question: And the LD50 [2]?
Answer: >100 µM

Question: And the EC (2-fold luciferase activity) [3]?
Answer: 11.9 ± 2.83 µM

Question: What about the % neuroprotection against rotenone/oligomycin A toxicity at 1 µM [4] of the same molecule?
Answer: 51.2 ± 15.5%

Question: COC(=O)C1=C(C)N(CCc2ccccc2)C(=O)/C1=C\c1cc(OC)c(OC)c(OC)c1 [Compound 3g, Methyl (Z)-2-Methyl-5-oxo-1-phenethyl-4-(3,4,5-trimethoxybenzylidene)-4,5-dihydro-1H-pyrrole-3-carboxylate] was tested. Which inhibition at 10 µM [1] did it give?
Answer: 11.6%

Question: And the LD50 [2]?
Answer: >100 µM

Question: And the % neuroprotection against rotenone/oligomycin A toxicity at 1 µM [4]?
Answer: 74.5 ± 7.19%

Question: For COC(=O)C1=C(C)N(CCc2ccccc2)C(=O)/C1=C\c1ccc(OCc2ccccc2Cl)c(OC)c1 [Compound 3k, Methyl (Z)-4-[4-((2-Chlorobenzyl)oxy)-3-methoxybenzylidene]-2-methyl-5-oxo-1-phenethyl-4,5-dihydro-1H-pyrrole-3-carboxylate], which inhibition at 10 µM [1] is on record?
Answer: 40.1%

Question: And the IC50 [1]?
Answer: 22.4 ± 3.2 µM

Question: What about the LD50 [2] of the same molecule?
Answer: >100 µM

Question: What about the EC (2-fold luciferase activity) [3] of the same molecule?
Answer: < 10 µM

Question: And the % neuroprotection against rotenone/oligomycin A toxicity at 1 µM [4]?
Answer: 60.3 ± 20.9%

Question: Which results are given for COC(=O)C1=C(C)N(CCc2ccccc2)C(=O)/C1=C\c1cc(OC)c(OC)cc1OC [Compound 3f, Methyl (Z)-2-Methyl-5-oxo-1-phenethyl-4-(2,4,5-trimethoxybenzylidene)-4,5-dihydro-1H-pyrrole-3-carboxylate]?
Answer: inhibition at 10 µM [1]: 29.3%; LD50 [2]: >100 µM; EC (2-fold luciferase activity) [3]: 31.1 ± 6.21 µM; % neuroprotection against rotenone/oligomycin A toxicity at 1 µM [4]: 51 ± 16.9%
